Consider 14 compounds from US7009052B2, “Sulfonamide derivatives” (Warner Lambert Company LLC, priority 2003, dated 2006).

In the assay the target is T1, androgen receptor (Homo sapiens, UniProt P10275).
T1 sequence (P10275 1-920 Q868H): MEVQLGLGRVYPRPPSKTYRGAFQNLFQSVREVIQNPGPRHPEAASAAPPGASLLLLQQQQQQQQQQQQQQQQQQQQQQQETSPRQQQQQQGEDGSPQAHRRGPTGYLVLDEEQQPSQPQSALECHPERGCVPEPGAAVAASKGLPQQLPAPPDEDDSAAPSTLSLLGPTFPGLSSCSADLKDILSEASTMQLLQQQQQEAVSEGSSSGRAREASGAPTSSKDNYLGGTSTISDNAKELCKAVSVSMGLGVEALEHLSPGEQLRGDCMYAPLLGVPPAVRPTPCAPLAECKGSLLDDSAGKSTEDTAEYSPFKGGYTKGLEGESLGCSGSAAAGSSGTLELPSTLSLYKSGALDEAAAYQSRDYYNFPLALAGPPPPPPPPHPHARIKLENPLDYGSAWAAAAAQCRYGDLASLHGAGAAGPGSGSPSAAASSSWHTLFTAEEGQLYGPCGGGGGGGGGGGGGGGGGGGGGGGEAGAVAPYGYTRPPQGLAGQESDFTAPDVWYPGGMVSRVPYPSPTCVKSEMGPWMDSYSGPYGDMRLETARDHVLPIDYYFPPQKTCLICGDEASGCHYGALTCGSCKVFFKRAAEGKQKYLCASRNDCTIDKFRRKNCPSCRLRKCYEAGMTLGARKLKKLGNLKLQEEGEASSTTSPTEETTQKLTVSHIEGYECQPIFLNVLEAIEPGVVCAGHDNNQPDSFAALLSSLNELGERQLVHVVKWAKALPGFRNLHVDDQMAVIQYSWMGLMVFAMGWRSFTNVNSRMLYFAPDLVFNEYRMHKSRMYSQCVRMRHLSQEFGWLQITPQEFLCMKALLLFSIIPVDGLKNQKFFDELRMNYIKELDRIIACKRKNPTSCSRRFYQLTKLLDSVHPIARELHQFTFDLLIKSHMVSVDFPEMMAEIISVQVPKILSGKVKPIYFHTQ
Briefly: AR Antagonist Cell Assay (MMTV-luciferase reporter, DHT-induced). In kind it is cell-based. As to conditions: MDA-MB453-MMTV clone 54-19 cells, 100 pM DHT, 17 hr. The method, then:
The compounds ability to antagonize the effects of androgen on the androgen receptor were determined in the protocol described immediately below.
Experimental Procedure for AR Antagonist Cell Assay
Cell line: MDA-MB453-MMTV clone 54-19. This cell line is a stable transfected cell line with MDA-MB453 cell background (human breast tumor cell expressing high level of androgen receptor). A MMTV minimal promoter containing ARE was first cloned in front of a firefly luciferase reporter gene. Then the cascade was cloned into transfection vector pUV120puro. Electroporation method was used for transfecting MDA-MB-453 cell. Puromycin resistant stable cell line was selected.
Cell Culture Media and Reagents:
Culture medium: DMEM (high glucose, Gibco cat #: 11960-044), 10% FBS, and 1% L-glutamine
Plating medium: DMEM (phenol red free), 10% charcoal treated HyClone serum, 1% L-glutamine
Assay medium: DMEM (phenol red free), 1% charcoal treated HyClone serum, 1% L-glutamine, and 1% penicillin/streptomycin
3× luciferase buffer: 2% beta-mercaptoethanol, 0.6% ATP, 0.0135% luciferine in cell lysis buffer
• 1. Cells are maintained in culture medium, splitting cells when they reach 80–90% confluence • 2. To test compounds, 10,000 cells/well are plated to opaque 96 cell culture plate in 100 ul/well plating medium, culture for overnight at 37° C. in cell culture incubator • 3. Carefully remove plating medium, then add 80 ul/well of pre-warmed assay medium, add 10 ul/well testing compound (final concentration at 10 uM or 1 uM), incubate at 37° C. for 30 minutes • 4. Add 10 ul/well freshly prepared DHT (final concentration at 100 pM) to each well, incubate at 37° C. for 17 hr (overnight) • 5. Add 50 ul/well 3× luciferase buffer, incubate at room temperature for 5 minutes, then count on Luminometer The fold induction over background by 100 pM DHT in the absence of testing compounds is standardized as 100% and experimental result is expressed as percentage of inhibition by testing compounds. TABLE3
(In a reporter assay the amount or activity of a reporter protein is the signal.)

Regarding `COc1ccccc1NS(=O)(=O)c1ccc2c(c1)c(C(F)(F)F)cc(=O)n2C` [Example 20, 1-Methyl-2-oxo-4-trifluoromethyl-1,2-dihydroquinoline-6-sulfonicacid (2-methoxyphenyl)amide], the concentration for half-maximal inhibition (IC50) – broadly, the concentration that inhibits the measured activity by half – is greater than 10 µM.
On to `Cn1c(=O)cc(C(F)(F)F)c2cc(S(=O)(=O)Nc3ccc(CC#N)cc3)ccc21` [Example 21, 1-Methyl-2-oxo-4-trifluoromethyl-1,2-dihydroquinoline-6-sulfonicacid (4-cyanomethylphenyl)amide], for which 0.99 µM corresponded to half-maximal inhibition (IC50).
For `Cn1c(=O)cc(C(F)(F)F)c2cc(S(=O)(=O)Nc3ccc4c(c3)CCC4)ccc21` [Example 22, 1-Methyl-2-oxo-4-trifluoromethyl-1,2-dihydroquinoline-6-sulfonicacid indan-5-ylamide] the value was 4.47 µM; for `Cn1c(=O)cc(C(F)(F)F)c2cc(S(=O)(=O)Nc3cccc4c3CCC4)ccc21` [Example 23, 1-Methyl-2-oxo-4-trifluoromethyl-1,2-dihydroquinoline-6-sulfonicacid indan-4-ylamide], greater than 10 µM.
Take `CC(=O)c1cccc(NS(=O)(=O)c2ccc3c(c2)c(C(F)(F)F)cc(=O)n3C)c1` [Example 24, 1-Methyl-2-oxo-4-trifluoromethyl-1,2-dihydroquinoline-6-sulfonicacid (3-acetylphenyl)amide]: the IC50 was found to be 4.23 µM.
On to `CC(C)c1ccc(NS(=O)(=O)c2ccc3c(c2)c(C(F)(F)F)cc(=O)n3C)cc1` [Example 25, 1-Methyl-2-oxo-4-trifluoromethyl-1,2-dihydroquinoline-6-sulfonicacid (4-isopropylphenyl)amide], for which 8.61 µM corresponded to half-maximal inhibition (IC50).
For the compound `Cn1c(=O)cc(C(F)(F)F)c2cc(S(=O)(=O)Nc3ccc4c(c3)OCO4)ccc21` [Example 26, 1-Methyl-2-oxo-4-trifluoromethyl-1,2-dihydroquinoline-6-sulfonicacid benzo[1,3]dioxol-5-ylamide], the half-inhibitory concentration (IC50) turned out to be 4.04 µM.
On to `Cc1ccc(-c2ccccc2)cc1NS(=O)(=O)c1ccc2c(c1)c(C(F)(F)F)cc(=O)n2C` [Example 27, 1-Methyl-2-oxo-4-trifluoromethyl-1,2-dihydroquinoline-6-sulfonicacid (4-methylbipheny-3-yl)amide], for which half-maximal inhibition (IC50) was put at 0.84 µM.
The compound `CC(O)c1cccc(NS(=O)(=O)c2ccc3c(c2)c(C(F)(F)F)cc(=O)n3C)c1` (centres unmarked) [Example 28, 1-Methyl-2-oxo-4-trifluoromethyl-1,2-dihydro-quinoline-6-sulfonic acid [3-(1-hydroxyethyl)phenyl]-amide] showed a 50% inhibitory concentration (IC50) greater than 10 µM.
For the compound `CSc1cccc(NS(=O)(=O)c2ccc3c(c2)c(C(F)(F)F)cc(=O)n3C)c1` [Example 29, 1-Methyl-2-oxo-4-trifluoromethyl-1,2-dihydroquinoline-6-sulfonicacid (3-methylsulfanylphenyl)amide], the IC50 was determined as 3.72 µM.
For `Cc1ccc(F)cc1NS(=O)(=O)c1ccc2c(c1)c(C(F)(F)F)cc(=O)n2C` [Example 30, 1-Methyl-2-oxo-4-trifluoromethyl-1,2-dihydroquinoline-6-sulfonicacid (5-fluoro-2-methylphenyl)amide] the value was greater than 10 µM.
`Cn1c(=O)cc(C(F)(F)F)c2cc(S(=O)(=O)Nc3ccc(Cl)cc3)ccc21` [Example 31, 1-Methyl-2-oxo-4-trifluoromethyl-1,2-dihydroquinoline-6-sulfonicacid (4-chlorophenyl)amide]: the half-inhibitory concentration (IC50) was determined as 1.32 µM.
For `Cn1c(=O)cc(C(F)(F)F)c2cc(S(=O)(=O)Nc3cc4ccccc4cn3)ccc21` [Example 32, 1-Methyl-2-oxo-4-trifluoromethyl-1,2-dihydroquinoline-6-sulfonicacid isoquinolin-3-ylamide], the 50% inhibitory concentration (IC50) is greater than 10 µM.
Turning to `Cn1c(=O)cc(C(F)(F)F)c2cc(S(=O)(=O)Nc3cnc4ccccc4c3)ccc21` [Example 33, 1-Methyl-2-oxo-4-trifluoromethyl-1,2-dihydroquinoline-6-sulfonicacid quinolin-3-ylamide], the concentration for half-maximal inhibition (IC50) is greater than 10 µM.
